Test results reported in patent US20260116908A1, “TYLOSIN DERIVATIVE AND PREPARATION METHOD AND APPLICATION THEREOF” (Institute of Feed Research, Chinese Academy of Agricultural …, priority 2023, published 2026).
Converted amounts (≈) assume the structure as drawn.

Key:
Type in all cases: cell-based
[1] = system: Streptococcus agalactiae CVCC3940; test: MIC by broth microdilution, Streptococcus agalactiae
Experimental: (§1) The antibacterial activity of the tylosin derivative Ia and the antibacterial activity of the tylosin derivative Ib of the present invention were determined by using the broth microdilution method with tylosin as a positive control. A broth culture medium was added into a 96-well plate, a prepared compound solution was diluted in a trace two-fold decreasing concentration, and then was inoculated with an appropriate amount of bacterial solution. After incubation for 24 hours, the minimum inhibitory concentration of the compound was observed. The culture medium used in the experiment was CAMHB broth and CAMHB+5% defibrillated sheep blood broth. The preserved bacteria strain was inoculated into a serum plate medium and cultured at 37° C. for 16-18 hours. An appropriate amount of bacteria after the completion of subculture and saline were placed into a turbidimetric tube and calibrated to the McFarland standard with a McFarland turbidimeter. The bacterial suspension was diluted 10 times with saline to prepare test bacterial solutions of certain concentrations (5×10^5 to 5×10^6 cfu/mL) for later use. Tylosin and the compounds obtained in the examples were dissolved in methanol to the desired concentration of each compound (1.0 mg/mL), stored in sterilized brown vials, stoppered, and sealed for later use. […]

[2] = system: Streptococcus pneumoniae ATCC 49169; test: MIC by broth microdilution, Streptococcus pneumoniae; conditions: for MIC: Streptococcus pneumoniae, ATCC49169, final compound (after hydrolysis), 96-well two-fold dilution, 37° C., 24 hours; for antibacterial effect on Streptococcus pneumoniae before versus after hydrolysis: before vs after hydrolysis
Experimental: (§2) The antibacterial activity of the tylosin derivative Ia and the antibacterial activity of the tylosin derivative Ib of the present invention were determined by using the broth microdilution method with tylosin as a positive control. A broth culture medium was added into a 96-well plate, a prepared compound solution was diluted in a trace two-fold decreasing concentration, and then was inoculated with an appropriate amount of bacterial solution. After incubation for 24 hours, the minimum inhibitory concentration of the compound was observed. The culture medium used in the experiment was CAMHB broth and CAMHB+5% defibrillated sheep blood broth. The preserved bacteria strain was inoculated into a serum plate medium and cultured at 37° C. for 16-18 hours. An appropriate amount of bacteria after the completion of subculture and saline were placed into a turbidimetric tube and calibrated to the McFarland standard with a McFarland turbidimeter. The bacterial suspension was diluted 10 times with saline to prepare test bacterial solutions of certain concentrations (5×10^5 to 5×10^6 cfu/mL) for later use. Tylosin and the compounds obtained in the examples were dissolved in methanol to the desired concentration of each compound (1.0 mg/mL), stored in sterilized brown vials, stoppered, and sealed for later use. The working concentration range against Gram-negative bacteria was 0.25 μg/mL to 128 μg/mL; and the working concentration range against Gram-positive bacteria was […] to 50 μg/mL. The 96-well plate micro double dilution method was used. […] Finally, the prepared bacterial solution (of a concentration of 5×10^5 to 5×10^6 cfu/mL) was added into the first well to the eleventh well, and the twelfth well was not added with the bacterial solution to serve as a blank control. The 96-well plate was placed in a 37° C. incubator, cultured in a static state for 24 hours to observe the bacterial growth in each well. The solution in the well that inhibited bacterial growth was transparent, and the solution in the well that could not inhibit bacterial growth was turbid. The concentration corresponding to the well with a transparent solution was selected to be the minimum inhibitory concentration (MIC) of the sample.

[3] = system: Staphylococcus aureus ATCC 29737; test: MIC by broth microdilution, Staphylococcus aureus
Experimental: as §1

[4] = system: Escherichia coli ATCC 8099; test: MIC by broth microdilution, Escherichia coli; conditions: for MIC: Escherichia coli, ATCC8099, final compound (after hydrolysis), 96-well two-fold dilution, 37° C., 24 hours; for antibacterial effect on Escherichia coli before versus after hydrolysis: before vs after hydrolysis
Experimental: as §2

Row | Structure (SMILES) | MIC ([1]; Streptococcus agalactiae, CVCC3940, after hydrolysis, 96-well two-fold dilution, 37° C., 24 hours) | antibacterial activity against Streptococcus agalactiae before versus after hydrolysis ([1]; before vs after hydrolysis) | MIC [2] | antibacterial effect on Streptococcus pneumoniae before versus after hydrolysis [2] | in vitro antibacterial activity against Streptococcus pneumoniae compared with tylosin [2] | MIC ([3]; Staphylococcus aureus, ATCC29737, after hydrolysis, 96-well two-fold dilution, 37° C., 24 hours) | antibacterial activity against Staphylococcus aureus before versus after hydrolysis ([3]; before vs after hydrolysis) | MIC [4] | antibacterial effect on Escherichia coli before versus after hydrolysis [4] | in vitro antibacterial activity against Escherichia coli compared with tylosin ([4]; compared with tylosin)
1 | CC[C@H]1OC(=O)C[C@@H](O)[C@H](C)[C@@H](O[C@@H]2O[C@H](C)[C@@H](O)[C@H](N(C)C)[C@H]2O)[C@@H](CCNCCCO)C[C@@H](C)C(=O)/C=C/C(C)=C/[C@@H]1CO[C@@H]1O[C@H](C)[C@@H](O)[C@@H](OC)[C@H]1OC [Ia, 20-(3-hydroxypropylamino)desmycosin] | 1.56 µg/mL (≈ 1.88 µM) | stronger before the hydrolysis | 0.391 µg/mL (≈ 0.47 µM) | comparable | higher in vitro antibacterial activity | 0.781 µg/mL (≈ 0.94 µM) | stronger after the hydrolysis | 128 µg/mL (≈ 154 µM) | comparable | –
2 | CC[C@H]1OC(=O)C[C@@H](O)[C@H](C)[C@@H](O[C@@H]2O[C@H](C)[C@@H](O)[C@H](N(C)C)[C@H]2O)[C@@H](CCN2CCC[C@@H]2CO)C[C@@H](C)C(=O)/C=C/C(C)=C/[C@@H]1CO[C@@H]1O[C@H](C)[C@@H](O)[C@@H](OC)[C@H]1OC [Ib, 20-((R)-2-hydroxymethyltetrahydropyrrolyl)desmycosin] | – | – | 0.098 µg/mL (≈ 0.114 µM) | doubled after the hydrolysis | higher in vitro antibacterial activity | – | – | 64 µg/mL (≈ 74.7 µM) | comparable | higher in vitro antibacterial activity
3 | CC[C@H]1OC(=O)C[C@@H](O)[C@H](C)[C@@H](O[C@@H]2O[C@H](C)[C@@H](O[C@H]3C[C@@](C)(O)[C@@H](O)[C@H](C)O3)[C@H](N(C)C)[C@H]2O)[C@@H](CC=O)C[C@@H](C)C(=O)/C=C/C(C)=C/[C@@H]1CO[C@@H]1O[C@H](C)[C@@H](O)[C@@H](OC)[C@H]1OC [Tylosin] | – | – | 0.781 µg/mL (≈ 0.853 µM) | – | – | – | – | 128 µg/mL (≈ 140 µM) | – | –
